System: aphid Rhopalosiphum padi
Experiment: Assay of the phagodeterrent activity of the R—OH alcohols (two-leaf choice test on wheat leaves in Petri dishes)
Assay type: in vivo
Details: for Bonferroni test: Treated media (mean number of aphids on treated leaves): wheat leaves, recorded each hour for 8 hours; for Bonferroni test: significance of treated vs control media: treated vs 5% methanol control leaf
Experimental: Treatment of wheat leaves consisted of immersion of the same for 10 seconds in aqueous suspensions of 5% methanol of the different alcohols, some of which were also tested at different concentrations.
As a control, the same number of leaves was prepared by immersion in an aqueous solution of 5% methanol only.
Assay of the Phaqodeterrent Activity of the R—OH Alcohols:
Petri dishes 9 cm in diameter were used, into each of which two wheat leaves were arranged in parallel and separated from one another by a distance of approximately 4 cm; one leaf was treated with the suspension in 5% methanol of alcohol at various concentrations, and the other control leaf was washed with a solution of 5% methanol. Aphids of the species Rhopalosiphum padi were introduced to the dishes (one per dish) at equal distance from the two leaves.
For each test, 10 aphids were used and the same test was repeated at least 12 times, for at least 120 aphids. The number of aphids present on the treated leaves and on the control leaves was recorded each hour for a total of 8 hours.
The raw data relating to the food choices of the aphids were analysed using the Generalised Linear Model (GLM) procedure for repeated measurements (SPSS release 15.01) and reported in Table 1. The differences of the media between the number of aphids per leaf at each […] and the number of aphids on corresponding control leaves were analysed and corrected by using the Bonferroni test for multiple comparisons.

[1] = alcohol 0.15 mM in 5% methanol aqueous suspension
[2] = alcohol 0.3 mM in 5% methanol aqueous suspension
[3] = alcohol 0.6 mM in 5% methanol aqueous suspension
[4] = alcohol 1.2 mM in 5% methanol aqueous suspension

| Compound | Bonferroni test: Treated media (mean number of aphids on treated leaves) [1] | Bonferroni test: significance of treated vs control media (alcohol 0.15 mM) | Bonferroni test: Treated media (mean number of aphids on treated leaves) [2] | Bonferroni test: significance of treated vs control media (alcohol 0.3 mM) | Bonferroni test: Treated media (mean number of aphids on treated leaves) [3] | Bonferroni test: significance of treated vs control media (alcohol 0.6 mM) | Bonferroni test: Treated media (mean number of aphids on treated leaves) [4] | Bonferroni test: significance of treated vs control media (alcohol 1.2 mM) | Bonferroni test: Treated media (mean number of aphids on treated leaves) (alcohol 0.075 mM in 5% methanol aqueous suspension) | Bonferroni test: significance of treated vs control media (alcohol 0.075 mM) |
| --- | --- | --- | --- | --- | --- | --- | --- | --- | --- | --- |
| CCCCCCCCCCCCCCCCCO [Heptadecanol] | 3.240 ± 0.410 | ** (** P < 0.01) | 3.063 ± 0.532 | ** (** P < 0.01) | 2.177 ± 0.298 | ** (** P < 0.01) | 1.094 ± 0.294 | ** (** P < 0.01) | – | – |
| CCCCCCCCCCCCCCCO [Pentadecanol] | 3.406 ± 0.405 | ** (** P < 0.01) | 2.271 ± 0.283 | ** (** P < 0.01) | 2.385 ± 0.237 | ** (** P < 0.01) | 1.365 ± 0.301 | ** (** P < 0.01) | 3.073 ± 0.335 | ** (** P < 0.01) |
| CCCCCCCCCCCCCCCCO [Hexadecanol] | 3.938 ± 0.429 | * (*P < 0.05) | 2.635 ± 0.323 | ** (** P < 0.01) | 2.281 ± 0.371 | ** (** P < 0.01) | 1.308 ± 0.315 | ** (** P < 0.01) | – | – |
| CCCCCCCCCCCCCCO [Tetradecanol] | 2.375 ± 0.370 | ** (** P < 0.01) | 3.271 ± 0.217 | ** (** P < 0.01) | 2.365 ± 0.264 | ** (** P < 0.01) | 1.938 ± 0.322 | ** (** P < 0.01) | – | – |
| CCCCCCCC/C=C\CCCCCCCCO [Cis-9-octadecenol] | – | – | – | – | – | – | 2.281 ± 0.283 | ** (** P < 0.01) | – | – |
| CCCCCCCCCCCCCCCCCCCO [Nonadecanol] | – | – | – | – | – | – | 3.427 ± 0.391 | * (*P < 0.05) | – | – |
| Octadecenol | – | – | – | – | – | – | 2.469 ± 0.333 | ** (** P < 0.01) | – | – |
| CCCCCCCCCCCCCCCCCCCCO [Eicosanol] | – | – | – | – | – | – | 3.042 ± 0.303 | ** (** P < 0.01) | – | – |
